Series [1] deals with Liver microsomes. Nature of the series: Metabolic stability in rat liver microsomes assessed as metabolic rate per mg of protein. The series is classed as ADME, Microsome.
Series [2] concerns Mus musculus. Nature of the series: Volume of distribution in mouse at 10 mg/kg, po. The series is classed as ADME, organism-based. Further details: dose 10 mg/kg, route oral. To be noted: in vivo.
Series [3] can be described thus: Oral bioavailability in mouse at 10 mg/kg. The series is classed as ADME, organism-based. To be noted: in vivo.
Series [4] can be described thus: Clearance in mouse at 10 mg/kg, po. The series is classed as ADME, organism-based. Further details: dose 10 mg/kg, route oral. To be noted: in vivo.
A short description of series [5]: Terminal half life in mouse at 10 mg/kg, po. The series is classed as ADME, organism-based. Further details: dose 10 mg/kg, route oral. To be noted: in vivo.
The test system of series [6] is Liver microsomes. In words: Metabolic stability in human liver microsomes assessed as metabolic rate per mg of protein. The series is classed as ADME, Microsome.

Regarding `Cc1ccc(C(=O)Nc2ccon2)cc1Nc1ncnc2c1cnn2-c1ccccc1`, the Stability in series [1] stood at 0.005 nmol/min/mg; in series [6], 0 nmol/min. Moreover, the Vd in series [2] worked out at 1.3 L/kg. This compound showed a bioavailability in series [3] of 60%. For the same compound, the apparent clearance (CL/F) in series [4] is 5 mL/min/kg. This compound gave a half-life in series [5] of 4.1 h.
